Active and inactive are the calls of the source. The calls are words filed in the database; no cut-off is given here.
What was measured:
Cholinesterase = Cholinesterase (Equus caballus, UniProt P81908); experiment: Inhibition of equine serum BuChE using butyrylthiocholine iodide as substrate preincubated for 10 mins followed by substrate addition measured for 6 mins by Ellman's method
Acetylcholinesterase [1] = target: T1, Acetylcholinesterase (Electrophorus electricus, UniProt O42275); experiment: Inhibition of electric eel AChE using acetylthiocholine iodide as substrate preincubated for 10 mins followed by substrate addition measured for 6 mins by Ellman's method
in vitro [2] = conditions: human, HepG2 cells
Description: Cytotoxicity against human HepG2 cells assessed as cell viability at 5 uM after 24 hrs by MTT assay relative to control

in vitro [3] = conditions: human, HepG2 cells; remark: listed apart in the source
Description: Cytotoxicity against human HepG2 cells assessed as cell viability at 100 uM after 24 hrs by MTT assay relative to control

in vitro [4] = conditions: human, HepG2 cells; remark: listed apart in the source
Description: Cytotoxicity against human HepG2 cells assessed as cell viability at 25 uM after 24 hrs by MTT assay relative to control

in vitro [5] = conditions: human, HepG2 cells; remark: listed apart in the source
Description: Cytotoxicity against human HepG2 cells assessed as cell viability at 50 uM after 24 hrs by MTT assay relative to control

in vitro [6] = conditions: human, HepG2 cells; remark: listed apart in the source
Description: Cytotoxicity against human HepG2 cells assessed as cell viability at 300 uM after 24 hrs by MTT assay relative to control

in vitro [7] = conditions: human, HepG2 cells; remark: listed apart in the source
Description: Cytotoxicity against human HepG2 cells assessed as cell viability at 1 uM after 24 hrs by MTT assay relative to control

in vitro [8] = conditions: human, HepG2 cells; remark: listed apart in the source
Description: Cytotoxicity against human HepG2 cells assessed as cell viability at 10 uM after 24 hrs by MTT assay relative to control

PC-12 [9] = experiment: Neuroprotective activity in rat PC12 cells assessed as decrease in H2O2 mediated apoptosis at 10 uM preincubated for 3 hrs followed by H2O2 challenge measured after 24 hrs by MTT assay; type: functional, cell-based
[10] = target: Acetylcholinesterase (Electrophorus electricus) (UniProt O42275); experiment: Potency index, ratio of IC50 for tacrine to IC50 for test compound for electric eel AChE
PC-12 [11] = experiment: Neurotoxicity in rat PC12 cells assessed as reduction in cell viability at 1 to 10 uM after 24 hrs by MTT assay; type: toxicity, cell-based; conditions: pc-12, 24 h
PC-12 [12] = experiment: Neuroprotective activity in rat PC12 cells assessed as decrease in H2O2 mediated apoptosis at 1 uM preincubated for 3 hrs followed by H2O2 challenge measured after 24 hrs by MTT assay; type: functional, cell-based
Acetylcholinesterase [13] = target: T1, Acetylcholinesterase; experiment: Mixed-type inhibition of electric eel AChE using acetylthiocholine iodide as substrate preincubated for 10 mins followed by substrate addition measured for 6 mins by Lineweaver-Burk plot analysis
PC-12 [14] = experiment: Neuroprotective activity in rat PC12 cells assessed as decrease in H2O2-mediated apoptosis at 100 uM preincubated for 3 hrs followed by H2O2 challenge measured after 24 hrs by MTT assay; type: functional, cell-based

T1 sequence (O42275 whole entry): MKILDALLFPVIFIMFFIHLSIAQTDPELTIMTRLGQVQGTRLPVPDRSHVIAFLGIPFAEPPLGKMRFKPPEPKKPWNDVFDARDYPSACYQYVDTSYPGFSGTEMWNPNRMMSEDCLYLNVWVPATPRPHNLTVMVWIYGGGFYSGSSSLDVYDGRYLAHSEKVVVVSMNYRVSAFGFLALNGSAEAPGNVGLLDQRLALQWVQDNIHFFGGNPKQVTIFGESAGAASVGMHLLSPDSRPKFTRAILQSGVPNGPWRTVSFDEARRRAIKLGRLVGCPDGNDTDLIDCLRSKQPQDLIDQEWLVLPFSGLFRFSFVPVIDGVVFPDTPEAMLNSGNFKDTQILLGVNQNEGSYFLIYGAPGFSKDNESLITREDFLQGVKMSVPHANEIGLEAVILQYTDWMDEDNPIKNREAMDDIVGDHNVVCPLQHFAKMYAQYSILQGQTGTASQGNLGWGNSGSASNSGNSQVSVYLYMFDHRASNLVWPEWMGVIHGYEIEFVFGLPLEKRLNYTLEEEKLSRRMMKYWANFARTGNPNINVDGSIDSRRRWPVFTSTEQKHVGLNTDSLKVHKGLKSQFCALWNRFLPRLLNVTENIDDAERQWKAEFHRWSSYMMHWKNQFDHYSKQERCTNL
Sequence of Cholinesterase (P81908 whole entry): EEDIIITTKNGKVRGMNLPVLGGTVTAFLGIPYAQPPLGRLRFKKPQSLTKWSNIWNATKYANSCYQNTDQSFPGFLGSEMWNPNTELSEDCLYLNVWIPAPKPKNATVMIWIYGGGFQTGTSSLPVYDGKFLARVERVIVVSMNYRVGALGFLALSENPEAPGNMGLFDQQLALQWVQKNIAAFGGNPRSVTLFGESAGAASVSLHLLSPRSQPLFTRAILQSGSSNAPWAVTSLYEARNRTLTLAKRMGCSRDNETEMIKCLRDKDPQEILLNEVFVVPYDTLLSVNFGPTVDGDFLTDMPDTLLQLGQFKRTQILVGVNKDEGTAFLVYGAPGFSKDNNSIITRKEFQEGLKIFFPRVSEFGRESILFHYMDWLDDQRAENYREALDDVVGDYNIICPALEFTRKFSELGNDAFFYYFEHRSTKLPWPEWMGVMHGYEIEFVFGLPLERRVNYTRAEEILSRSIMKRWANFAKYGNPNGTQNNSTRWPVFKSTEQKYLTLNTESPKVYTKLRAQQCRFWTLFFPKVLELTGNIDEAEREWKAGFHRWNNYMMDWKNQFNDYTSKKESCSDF
Sequence of Acetylcholinesterase (Electrophorus electricus) (O42275 24-633 limits assumed): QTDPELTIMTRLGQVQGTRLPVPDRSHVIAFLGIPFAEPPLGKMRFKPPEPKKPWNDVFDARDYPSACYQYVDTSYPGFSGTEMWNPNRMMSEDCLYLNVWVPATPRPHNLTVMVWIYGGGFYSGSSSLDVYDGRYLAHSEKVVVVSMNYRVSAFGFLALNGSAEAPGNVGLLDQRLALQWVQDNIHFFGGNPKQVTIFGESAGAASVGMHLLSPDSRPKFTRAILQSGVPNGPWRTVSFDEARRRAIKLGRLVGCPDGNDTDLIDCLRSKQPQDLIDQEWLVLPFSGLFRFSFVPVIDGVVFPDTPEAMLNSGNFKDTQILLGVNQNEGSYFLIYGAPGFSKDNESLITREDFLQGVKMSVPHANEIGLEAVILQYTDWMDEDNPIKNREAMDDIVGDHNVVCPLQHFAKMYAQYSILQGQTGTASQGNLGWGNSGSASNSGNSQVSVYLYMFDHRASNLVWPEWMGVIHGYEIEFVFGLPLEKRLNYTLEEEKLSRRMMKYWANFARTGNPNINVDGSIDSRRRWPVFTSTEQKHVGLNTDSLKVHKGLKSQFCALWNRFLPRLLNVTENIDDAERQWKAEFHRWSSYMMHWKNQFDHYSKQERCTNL

Structure (SMILES) | IC50 (Cholinesterase) [nM] | IC50 (Acetylcholinesterase [1]) [nM] | further results
Nc1c2c(nc3c1C(c1cccc([N+](=O)[O-])c1)n1c(=O)c4ccccc4c(=O)n1-3)CCCC2 (centres undefined) | > 100000 | 140 | 
Nc1c2c(nc3c1C(c1ccc(Cl)cc1)n1c(=O)c4ccccc4c(=O)n1-3)CCCC2 (centres undefined) | 96200 | 60 | viability at 24 h, 5 µM (in vitro [2]): 96.2%; viability at 24 h, 100 µM (in vitro [3]): 91.3%; viability at 24 h, 25 µM (in vitro [4]): 94.4%; viability at 24 h, 50 µM (in vitro [5]): 92.4%; viability at 24 h, 300 µM (in vitro [6]): 89.3%; viability at 24 h, 1 µM (in vitro [7]): 98.6%; viability at 24 h, 10 µM (in vitro [8]): 95.1%
Nc1c2c(nc3c1C(c1ccccc1)n1c(=O)c4ccccc4c(=O)n1-3)CCCC2 (centres undefined) | > 100000 | 614 | 
Cc1cccc(C2c3c(nc4c(c3N)CCCC4)-n3c(=O)c4ccccc4c(=O)n32)c1 (centres undefined) | > 100000 | 467 | 
Nc1c2c(nc3c1C(c1ccccc1[N+](=O)[O-])n1c(=O)c4ccccc4c(=O)n1-3)CCCC2 (centres undefined) | > 100000 | 280 | 
CCCCCC1c2c(nc3c(c2N)CCCC3)-n2c(=O)c3ccccc3c(=O)n21 (centres undefined) | > 100000 | 612 | 
CC1c2c(nc3c(c2N)CCCC3)-n2c(=O)c3ccccc3c(=O)n21 (centres undefined) | > 100000 | 2150 | 
Nc1c2c(nc3c1C(c1ccccc1Cl)n1c(=O)c4ccccc4c(=O)n1-3)CCCC2 (centres undefined) | > 100000 | 592 | 
CCCC1c2c(nc3c(c2N)CCCC3)-n2c(=O)c3ccccc3c(=O)n21 (centres undefined) | > 100000 | 1630 | 
Nc1c2c(nc3c1C(c1cccc(Br)c1)n1c(=O)c4ccccc4c(=O)n1-3)CCCC2 (centres undefined) | > 100000 | 271 | 
O=c1c(O)c(-c2ccc(O)c(O)c2)oc2cc(O)cc(O)c12 |  |  | Activity (PC-12 [9]): Active
COc1cc(OC)cc(C2c3c(nc4c(c3N)CCCC4)-n3c(=O)c4ccccc4c(=O)n32)c1 (centres undefined) | > 100000 | 3370 | 
Nc1c2c(nc3c1C(c1cccc(O)c1)n1c(=O)c4ccccc4c(=O)n1-3)CCCC2 (centres undefined) | > 100000 | 160 | 
Cc1ccc(C2c3c(nc4c(c3N)CCCC4)-n3c(=O)c4ccccc4c(=O)n32)cc1 (centres undefined) | > 100000 | 100 | 
Nc1c2c(nc3c1C(c1cccc(F)c1)n1c(=O)c4ccccc4c(=O)n1-3)CCCC2 (centres undefined) | 37200 | 23 | viability at 24 h, 5 µM (in vitro [2]): 90.9%; viability at 24 h, 100 µM (in vitro [3]): 74.8%; viability at 24 h, 25 µM (in vitro [4]): 82.7%; viability at 24 h, 50 µM (in vitro [5]): 78.8%; viability at 24 h, 300 µM (in vitro [6]): 68.2%; viability at 24 h, 1 µM (in vitro [7]): 93.5%; viability at 24 h, 10 µM (in vitro [8]): 86.1%; Ratio IC50 [10]: 15
Cc1ccccc1C1c2c(nc3c(c2N)CCCC3)-n2c(=O)c3ccccc3c(=O)n21 (centres undefined) | > 100000 | 193 | 
Nc1c2c(nc3c1C(c1ccc(Br)cc1)n1c(=O)c4ccccc4c(=O)n1-3)CCCC2 (centres undefined) | > 100000 | 80 | viability at 24 h, 5 µM (in vitro [2]): 98.3%; viability at 24 h, 100 µM (in vitro [3]): 92.8%; viability at 24 h, 25 µM (in vitro [4]): 96.4%; viability at 24 h, 50 µM (in vitro [5]): 95.7%; viability at 24 h, 300 µM (in vitro [6]): 90%; viability at 24 h, 1 µM (in vitro [7]): 99.8%; viability at 24 h, 10 µM (in vitro [8]): 97.6%
Nc1c2c(nc3c1C(c1ccccc1Br)n1c(=O)c4ccccc4c(=O)n1-3)CCCC2 (centres undefined) | > 100000 | 599 | 
Nc1c2c(nc3c1C(c1ccccc1F)n1c(=O)c4ccccc4c(=O)n1-3)CCCC2 (centres undefined) | > 100000 | 618 | 
Nc1c2c(nc3c1C(c1ccc(F)cc1)n1c(=O)c4ccccc4c(=O)n1-3)CCCC2 (centres undefined) | > 100000 | 69 | viability at 24 h, 5 µM (in vitro [2]): 87.5%; viability at 24 h, 100 µM (in vitro [3]): 71.4%; viability at 24 h, 25 µM (in vitro [4]): 80%; viability at 24 h, 50 µM (in vitro [5]): 75.9%; viability at 24 h, 300 µM (in vitro [6]): 66.4%; viability at 24 h, 1 µM (in vitro [7]): 91.2%; viability at 24 h, 10 µM (in vitro [8]): 83.3%
COc1ccccc1C1c2c(nc3c(c2N)CCCC3)-n2c(=O)c3ccccc3c(=O)n21 (centres undefined) | 93300 | 49 | viability at 24 h, 5 µM (in vitro [2]): 95%; Activity (PC-12 [11]): Non-Toxic; viability at 24 h, 100 µM (in vitro [3]): 86.4%; viability at 24 h, 25 µM (in vitro [4]): 90.2%; viability at 24 h, 50 µM (in vitro [5]): 87.3%; Activity (PC-12 [12]): inactive; Ki (Acetylcholinesterase [13]): 12.6 nM; viability at 24 h, 300 µM (in vitro [6]): 83%; viability at 24 h, 1 µM (in vitro [7]): 96.3%; viability at 24 h, 10 µM (in vitro [8]): 95.2%; Activity (PC-12 [14]): Active; Activity (PC-12 [9]): inactive
Nc1c2c(nc3c1C(c1ccc([N+](=O)[O-])cc1)n1c(=O)c4ccccc4c(=O)n1-3)CCCC2 (centres undefined) | > 100000 | 310 | 

From ChEMBL document CHEMBL4190323, “New racemic annulated pyrazolo[1,2-b]phthalazines as tacrine-like AChE inhibitors with potential use in Alzheimer's disease” (Eur J Med Chem, 2017)
